Measured values as given in patent publication US7902135B2, “Method of improving the ocular tolerance of foaming and/or detergent compositions for skin use” (Societe d'Exploitation de Produits pour les Industries …, priority 2006, dated 2011).

Test system: chorioallantoic membrane of the preincubated Leghorn hen's egg
Test: HET-CAM (Hen's Egg Test ChorioAllantoic Membrane) test of ocular irritation potential
Conditions: for Classification of the concentrate tested: HET-CAM, active material concentration of 1%, pH 7, class by scale of the index I
Excerpt: The experimental protocol of this test is adapted from the Luepke publication (The Hen's Egg Test: “An Alternative Toxicity Test”, Brit. J. Dermato., 1986, 115. Suppl. 31, 133-135, Luepke N. P. & Kemper F. H. The HET-CAM Test: “An Alternative to the Draize Test”, Food Chem. Toxicol., 1986, 24, No. 6/7, 495-496), from the INVITTOX No. 47 protocol (1992, INVITTOX data bank, 34 Stoney Street, Nottingham, NG1 1NB, UK) and from Annex IV to the order published in the Official Journal of the French Republic of 26 Dec. 1996 relating to the official methods for the analysis of beauty products (NOR: FCEC9600217A).
This tests consists in assessing the irritation potential of a substance by reading the modifications observed after application of a solution of this substance to the richly vascularized chorioallantoic membrane of the preincubated Leghorn hen's egg.
The products were tested at an active material concentration of 1%. The solutions are prepared by diluting in deionized water at most 24 hours in advance.
The pH of the test solutions is adjusted to 7 with triethanolamine or lactic acid, if necessary.
On reception, the fertilized eggs are preincubated in an incubator for 10 days at 37.8° C.±0.5° C. with a degree of humidity in the incubator of 50% to 60%.
The shell of the eggs on which the tests are carried out is cut out around the air pocket and the chorioallantoic membrane is uncovered by carefully removing the shell membrane using tweezers.
0.3 cm^3 of the solution to be tested is deposited at the surface of the membrane. […]
By definition, if one of the phenomena has not appeared during these five minutes (300 seconds), it is recorded ti=301 seconds.
Each solution is tested on 4 to 6 eggs according to the repeatability of the reactions observed. The Het-Cam index I, representative of the test, is calculated for each egg tested in the following way: I=5×(301−t1)/300+7×(301−t2)/300+9×(301−t3)/300
The mean of the individual indices is subsequently calculated, along with the statistical uncertainty i: i=t·S/√n for a risk of 5% […]

Sodium lauryl ether (2.2 EO) sulfate [compound 1]
Classification of the concentrate tested: Irritating (9 ≦ . . . I < 12)
Classification of the concentrate tested (listed as comparative example 1): irritating
Het-Cam index (active material concentration of 1% in deionized water, pH adjusted to 7, 0.3 cm^3 on membrane, rinsed after 20 seconds, read over 5 minutes, mean of 4 to 6 eggs): 10.7
